Results reported in US7202276B2, “Use of 13-HODE as a regulator of vascular biocompatibility and an inhibitor of cell hyperplasia” (1411198 Ontario Limited, priority 2000, dated 2007).
Where two headings read alike, the source gives them in different places. Blank lines part the entries; values can stand above or below the compound they belong to.

How the values were obtained:
[1] = system: Sarcoma 180 tumors; conditions: given orally; cited from earlier work
[2] = Vessel wall (VW) 13-HODE levels in rabbits treated orally with 13-HODE; type: in vivo, New Zealand white rabbits; conditions: suspended in ethyl-EPA, all treatment levels
Experimental: (§1) New Zealand white rabbits (half males/half females; 2.5–2.9 kg) were used throughout. Rabbits were treated with 100, 400 or 1000 μg/kg/day of purified 13-HODE suspended in corn oil or ethyl-eicosapentaenoic acid (EPA), or with an equivolume of either suspending vehicle (total volume 1 ml) for 7 days. Serial blood samples were collected before, during and after treatment to assess the levels of 13-HODE in plasma. On day 7, the treatments were stopped. At that time, the rabbits were anaesthetised with a combination of Atravet, Ketamine, Vetrepham and glycopyrolate, given subcutaneously. Both carotid arteries of anaesthetised rabbits were isolated between 2 temporary ligatures, first by applying the proximal ligature, then allowing the blood to drain from the segment, and then applying the distal ligature. A 24-gauge angiocath attached to tubing filled with sterile saline and connected to a pressure manometer, was inserted into the isolated segment. Then the segment was filled with the saline to a pressure of 600 mm Hg which was maintained for 5 minutes. The pressure was relieved, and the angiocath and ligatures were removed, thereby allowing for blood flow restoration. Cessation of bleeding from the needle puncture site was achieved within 3 minutes without any manual manipulation. The incisions were sutured closed with 000 proline. […]

[3] = Stability of 13-HODE dosage forms; type: physicochemical; conditions: dissolved into a triglyceride oil carrier or an ester
Experimental: A real problem is presented by the fact that active daily doses of 13-HODE are in the 50 to 1,000 μg/kg/day range. […] That translates into a 7 mg/day dose for a 70 kg person. Since doses for humans are often considerably lower than doses for animals because of a weight/body surface area scaling, a daily dose of as little as 5 mg or less is really possible. Formulating an oily liquid is such small doses is a problem. It could be absorbed into tabletting materials and tabletted and coated, or micro-encapsulated by methods well known to those skilled in the art. […] Other triglyceride oils such as vegetable oil, including sunflower, safflower, soy, evening primrose, borage, coconut or palm oil, or cottonseed, rapeseed, olive, fish body or fish liver oils may all be used for this purpose. Particularly useful esters for this purpose are esters of fatty acids with 16–26 carbon atoms and one or more double bonds in the chain.

[4] = system: VW intimal hyperplasia of injured carotid arteries; test: Intimal hyperplasia after carotid artery pressure injury in rabbits; type: in vivo, New Zealand white rabbits; conditions: 7 day course of 100 μg/kg/day, in either corn oil or ethyl-EPA, p<0.001
Experimental: as §1

[5] = Cell free plasma 13-HODE levels in rabbits treated orally with 13-HODE; type: in vivo, New Zealand white rabbits
Experimental: New Zealand white rabbits (half males/half females; 2.5–2.9 kg) were used throughout. Rabbits were treated with 100, 400 or 1000 μg/kg/day of purified 13-HODE suspended in corn oil or ethyl-eicosapentaenoic acid (EPA), or with an equivolume of either suspending vehicle (total volume 1 ml) for 7 days. Serial blood samples were collected before, during and after treatment to assess the levels of 13-HODE in plasma. On day 7, the treatments were stopped. At that time, the rabbits were anaesthetised with a combination of Atravet, Ketamine, Vetrepham and glycopyrolate, given subcutaneously. Both carotid arteries of anaesthetised rabbits were isolated between 2 temporary ligatures, first by applying the proximal ligature, then allowing the blood to drain from the segment, and then applying the distal ligature. A 24-gauge angiocath attached to tubing filled with sterile saline and connected to a pressure manometer, was inserted into the isolated segment. Then the segment was filled with the saline to a pressure of 600 mm Hg which was maintained for 5 minutes. The pressure was relieved, and the angiocath and ligatures were removed, thereby allowing for blood flow restoration. Cessation of bleeding from the needle puncture site was achieved within 3 minutes without any manual manipulation. The incisions were sutured closed with 000 proline. The rabbits were injected intramuscularly with Temgesic to minimize any pain and with 12.5 mg Baytril as an antibiotic, and then allowed to recover. This injury procedure results in endothelial denudation and the exposure of a thrombogenic surface within 1 hour of restoration of blood flow, followed by SMC proliferation and intimal hyperplasia, which plateaus at □ 4 weeks and which is sustained for ≧12 weeks (Buchanan M R, Brister S J: 1998: Buchanan M R et al. 1999).
Two, four or twelve weeks later, the rabbits were re-anaesthetised and their injured carotid arteries were again isolated. Segments of injured and uninjured carotid artery were harvested and processed histologically to assess VW hyperplasia. Other VW segments and blood samples were collected and processed for VW and plasma 13-HODE levels.

[6] = stroke, myocardial infarction, transient ischemic attacks; cited from earlier work
[7] = system: intimal SMC hyperplasia; conditions: 1 mg/kg/day for 7 days before VW injury, 4 weeks after VW injury; cited from earlier work
[8] = system: platelet/injured VW interactions; conditions: dose comparable to that used clinically; cited from earlier work
[9] = system: platelet/injured VW interactions; conditions: 3.2 gm daily for 30 days; cited from earlier work
[10] = 3.2 gm daily (20 capsules) for 30 days; cited from earlier work

SMILES: CCCCC/C=C\C=C\C(O)CCCCCCCC(=O)O (stereo not shown) [9-HODE, 9-hydroxy-10(E)-12(Z) octadecadienoic acid]
minimum effective dose for inhibiting the rate of tumour growth [1]: 55 mg/kg/day

stability of the dosage form [3]: stable without degradation | time to significantly elevated cell-free plasma 13-HODE level ([5]; 1,000 μg/kg/day oral): ≤ 3 days | time cell-free plasma 13-HODE level remained elevated ([5]; 1,000 μg/kg/day oral, treatment stopped after 7 days): 4 weeks | effect on plasma 13-HODE levels of increasing the dose ([5]; 1,000 μg/kg/day vs 100 μg/kg/day, corn oil): no further effect | increase in the plasma 13-HODE levels ([5]; after 7 days of oral 100 μg/kg/day, suspended in corn oil): three-fold increase | half life ([5]; orally administered): long half life | oral absorption ([5]; orally administered): well absorbed | absolute levels of plasma 13-HODE, compared with corn oil ([5]; suspended in ethyl-EPA, all treatment levels): lower in all treatment levels tested
SMILES: CCCCCC(O)/C=C/C=C\CCCCCCCC(=O)O (stereo not shown) [13-HODE, 13-hydroxyoctadeca-9Z, 11E-dienoic acid]
absolute levels of VW 13-HODE, compared with corn oil [2]: somewhat lower at all treatment levels tested | intimal VW hyperplasia [4]: significantly inhibited

SMILES: CC(=O)Oc1ccccc1C(=O)O [ASA]
overall risk reduction [6]: ~25%

SMILES: OCCN(CCO)c1nc(N2CCCCC2)c2nc(N(CCO)CCO)nc(N3CCCCC3)c2n1 [Persantine]
SMC hyperplasia [7]: inhibited | decrease in platelet/injured VW interactions [8]: > 2 fold

SMILES: CCCCC/C=C\C/C=C\CCCCCCCC(=O)O [linoleic acid, Octa-deca-9Z, 12Z-dienoic acid]
decrease in platelet/injured VW interactions [9]: > 2 fold | increase in VW 13-HODE levels [10]: 2 fold
